Values of other authors in patent EP3645498B1, “PROCESS FOR RECOVERING ACETIC ACID FROM AN AQUEOUS STREAM COMPRISING THE SAME” (Nouryon Chemicals International B.V., priority 2017, dated 2019).
Read-outs that look alike come from different tables or passages of the source.

| SMILES | Solubility in water (result in words) | Solubility in water |
| --- | --- | --- |
| CCCCCCCCN(CCCCCCCC)CCCCCCCC [TOA, trioctylamine] |  | < 5ppm^[2] |
| CCCCCCCCCCCCc1ccccc1 [Phenyldodecane, phenyldodecane] | Insoluble^[11] |  |
| CCCCCCCCCCCO [1 -Undecanol, 1-undecanol] | Insoluble^[10] |  |

Further lines, results first:

| Solubility in water (result in words) | Solubility in water | SMILES |
| --- | --- | --- |
| Insoluble^[5] |  | CCCCCCCCP(=O)(CCCCCCCC)CCCCCCCC [TOPO, tri-octylphosphine oxide] |
|  | 0.0022 mg/L^[8] | CCCCCCCCCCCCCC [n-Tetradecane, n-tetradecane] |
